In US9498450B2, “1-aminocyclohexane derivatives for the treatment of cochlear tinnitus” (MERZ PHARMA GmbH & CO. KGaA, priority 2007, dated 2016):

System: subjects with subjective tinnitus of at least moderate severity
Experiment: Double blind placebo controlled pilot trial of neramexane for treatment of tinnitus (TBF-12/THF-12 total score)
Assay type: in vivo, human
Conditions: for Change in TBF-12 total score, Week 16 Neramexane-Placebo LSMean / TBF-12 total score, Change LSMean / TBF-12 total score, Neramexane-Placebo LSMean Diff. ± SE / TBF-12 total score, Week 16 Change Mean ± SD / TBF-12 total score, Week 16 Actual Mean ± SD: ITT-LOCF; for TBF-12 total score, Change LSMean / TBF-12 total score, Neramexane-Placebo LSMean Diff. ± SE / TBF-12 total score, Week 16 Change Mean ± SD: baseline to week 16; for improvement as compared to placebo treatment (difference): 50 mg dose group
Description: Visit 1 (screening): After signing the consent form, the subject underwent a physical examination and clinical laboratory testing. Patient eligibility for the study was evaluated via a check of inclusion/exclusion criteria. An initial Tinnitus Interview was conducted. The subject also completed a Tinnitus-Beeinträchtigungs-Fragebogen (THF-12) (i.e., a 12-item German modified and validated version (Greimel K V et al., Tinnitus-Beeinträchtigungs-Fragebogen (THF-12). Manual. Frankfurt am Main: Swets & Zeitlinger B. V.; 2000) of the 25-item Tinnitus Handicap Inventory or THI (Newman C W, et al. Development of the Tinnitus Handicap Inventory. Arch Otolaryngol Head Neck Surg 1996; 122(2): 143-148; Newman C W, et al. Psychometric adequacy of the Tinnitus Handicap Inventory (THI) for evaluating treatment outcome. J Am Acad Audiol 1998; 9(2): 153-160.)), a Hospital Anxiety and Depression Scale—Depression Subscale (HADS-D) Questionnaire and a Hyperacusis (Geräuschüberempfindlichkeit-Fragenbogen (GÜF)) Questionnaire (if applicable).
Visit 2 (baseline): The subject was asked about adverse events and changes in concomitant medication/disease, which events/changes were documented. The subject was evaluated for study eligibility based on a review of the inclusion/exclusion criteria. Trial procedures as well as allowed and forbidden concomitant medications were reviewed with the subject. An initial Tinnitus Interview was conducted. The subject also completed a THF-12, HADS-D Questionnaire and GÜF Questionnaire (if applicable). The subject was enrolled in the study and study medication (placebo or neramexane) was dispensed as described below.
Visit 6 (Week 16, end of treatment): This visit occurred at the end of the 12-week fixed-dose double-blind treatment period. The subject was asked about adverse events and changes in concomitant medication/disease, which changes are documented. A clinical laboratory evaluation was performed. A follow-up Tinnitus Interview was conducted, and the subject completed a THF-12, HADS-D Questionnaire and GÜF Questionnaire (if applicable). Pure-tone audiometry (air conduction) was also conducted.
Primary Outcome • The change in THF-12 total score from baseline (Visit 2) to the endpoint visit (Visit 6, i.e. Week 16) was the primary efficacy endpoint in this study.
All efficacy analyses were performed on the ITT population using the last-observation-carried-forward (LOCF) approach. For sensitivity purposes an analysis of the per-protocol set and of observed cases was performed additionally. All statistical tests used for testing the primary efficacy (confirmatory testing) and secondary efficacy criteria (exploratory), and all other statistical tests used for exploratory analyses were two-sided hypothesis tests performed at the 5% significance level. For all variables standard descriptive statistics were calculated.
Change from baseline (Visit 2) to Week 16 in THF-12 total score was analyzed using a two-way ANCOVA model with treatment group and study centers as factors and baseline THF-12 total score as covariate. […]

[1] = 25 mg/d, subjects with mild hearing loss
[2] = 25 mg/d, subjects with tinnitus duration 3 to <8 months
[3] = 25 mg/d, total study population
[4] = 50 mg/d, subjects with mild hearing loss
[5] = 50 mg/d, subjects with tinnitus duration 3 to <8 months
[6] = 50 mg/d, total study population
[7] = 75 mg/d, subjects with mild hearing loss
[8] = 75 mg/d, subjects with tinnitus duration 3 to <8 months
[9] = 75 mg/d, total study population

For `CC1(C)CC(C)(C)CC(C)(N)C1` [Neramexane, 1-amino-1,3,3,5,5-pentamethylcyclohexane], the “Change in TBF-12 total score, Week 16 Neramexane-Placebo LSMean” value (“Change in TBF-12 total score” for short) (25 mg/d, HADS-D Anxiety subscale 0-7 at baseline) was 0.2, the “Change in TBF-12 total score” value (25 mg/d, HADS-D Anxiety subscale 8-10 at baseline) was −2.3 and the “Change in TBF-12 total score” value (25 mg/d, HADS-D Anxiety subscale >10 at baseline) was 2.3. For the same compound, the “Change in TBF-12 total score” value (25 mg/d, HADS-D Depression subscale 0-7 at baseline) was −0.3, the “Change in TBF-12 total score” value (25 mg/d, HADS-D Depression subscale 8-10 at baseline) was 0.6 and the “Change in TBF-12 total score” value (25 mg/d, HADS-D Depression subscale >10 at baseline) was 3.9. The “TBF-12 total score, Change LSMean” value [1] was −1.3, the “TBF-12 total score, Neramexane-Placebo LSMean Diff. ± SE” value [1] was 0.7 ± 0.9 and the “TBF-12 total score, Week 16 Change Mean ± SD” value [1] was −1.5 ± 3.4. For the same compound, the “TBF-12 total score, Week 16 Actual Mean ± SD” value (25 mg/d, subjects with mild hearing loss, score range 0-24) was 13.1 ± 5.8, the “TBF-12 total score, Change LSMean” value [2] was −2.2 and the “TBF-12 total score, Neramexane-Placebo LSMean Diff. ± SE” value [2] was 0.0 ± 0.8. The “TBF-12 total score, Week 16 Change Mean ± SD” value [2] was −2.5 ± 3.0, the “TBF-12 total score, Change LSMean” value [3] was −1.8 and the “TBF-12 total score, Neramexane-Placebo LSMean Diff. ± SE” value [3] was 0.5 ± 0.5. The “TBF-12 total score, Week 16 Change Mean ± SD” value [3] was −2.0 ± 3.4, the “improvement as compared to placebo treatment (difference)” value (patients who showed a mild hearing loss, post-hoc p=0.024) was −1.9 points and the “improvement as compared to placebo treatment (difference)” value (patients whose onset of tinnitus was three to eight months before treatment, post-hoc p=0.019) was −1.9 points. The “Change in TBF-12 total score” value (50 mg/d, HADS-D Anxiety subscale 0-7 at baseline) was −0.5, the “Change in TBF-12 total score” value (50 mg/d, HADS-D Anxiety subscale 8-10 at baseline) was −2.9 and the “Change in TBF-12 total score” value (50 mg/d, HADS-D Anxiety subscale >10 at baseline) was 0.6. The “Change in TBF-12 total score” value (50 mg/d, HADS-D Depression subscale 0-7 at baseline) was −1.3, the “Change in TBF-12 total score” value (50 mg/d, HADS-D Depression subscale 8-10 at baseline) was −1.1 and the “Change in TBF-12 total score” value (50 mg/d, HADS-D Depression subscale >10 at baseline) was 3.3. The “TBF-12 total score, Change LSMean” value [4] was −3.9, the “TBF-12 total score, Neramexane-Placebo LSMean Diff. ± SE” value [4] was −1.9 ± 0.8 and the “TBF-12 total score, Week 16 Change Mean ± SD” value [4] was −3.8 ± 3.9. For the same compound, the “TBF-12 total score, Week 16 Actual Mean ± SD” value (50 mg/d, subjects with mild hearing loss, score range 0-24) was 11.5 ± 5.2, the “TBF-12 total score, Change LSMean” value [5] was −4.0 and the “TBF-12 total score, Neramexane-Placebo LSMean Diff. ± SE” value [5] was −1.9 ± 0.8. For the same compound, the “TBF-12 total score, Week 16 Change Mean ± SD” value [5] was −4.2 ± 3.9, the “TBF-12 total score, Week 16 Actual Mean ± SD” value (50 mg/d, subjects with tinnitus duration 3 to <8 months, score range 0-24) was 10.0 ± 5.1 and the “TBF-12 total score, Change LSMean” value [6] was −3.1. For the same compound, the “TBF-12 total score, Neramexane-Placebo LSMean Diff. ± SE” value [6] was −0.8 ± 0.5, the “TBF-12 total score, Week 16 Change Mean ± SD” value [6] was −3.2 ± 4.1 and the “Change in TBF-12 total score” value (75 mg/d, HADS-D Anxiety subscale 0-7 at baseline) was 0.1. The “Change in TBF-12 total score” value (75 mg/d, HADS-D Anxiety subscale 8-10 at baseline) was −3.1, the “Change in TBF-12 total score” value (75 mg/d, HADS-D Anxiety subscale >10 at baseline) was 0.3 and the “Change in TBF-12 total score” value (75 mg/d, HADS-D Depression subscale 0-7 at baseline) was −0.9. The “Change in TBF-12 total score” value (75 mg/d, HADS-D Depression subscale 8-10 at baseline) was 0.0, the “Change in TBF-12 total score” value (75 mg/d, HADS-D Depression subscale >10 at baseline) was 0.4 and the “TBF-12 total score, Change LSMean” value [7] was −1.8. For the same compound, the “TBF-12 total score, Neramexane-Placebo LSMean Diff. ± SE” value [7] was −0.2 ± 0.9, the “TBF-12 total score, Week 16 Change Mean ± SD” value [7] was −1.9 ± 3.2 and the “TBF-12 total score, Week 16 Actual Mean ± SD” value (75 mg/d, subjects with mild hearing loss, score range 0-24) was 12.0 ± 4.6. The “TBF-12 total score, Change LSMean” value [8] was −3.3, the “TBF-12 total score, Neramexane-Placebo LSMean Diff. ± SE” value [8] was −1.1 ± 0.8 and the “TBF-12 total score, Week 16 Change Mean ± SD” value [8] was −3.4 ± 4.0. For the same compound, the “TBF-12 total score, Week 16 Actual Mean ± SD” value (75 mg/d, subjects with tinnitus duration 3 to <8 months, score range 0-24) was 10.6 ± 5.0, the “TBF-12 total score, Week 16 Actual Mean ± SD” value [9] was 11.0 ± 5.1 and the “TBF-12 total score, Change LSMean” value [9] was −2.8. The “TBF-12 total score, Neramexane-Placebo LSMean Diff. ± SE” value [9] was −0.5 ± 0.5, the “TBF-12 total score, Week 16 Change Mean ± SD” value [9] was −2.9 ± 3.9 and the “benefit compared to patients with HADS score below 10 at baseline” value (50 or 75 mg daily dose monotherapy, patients with HADS total score of 10 or more at baseline) was “weaker benefit”. The “response (effect in treating tinnitus) compared to total study population” value (patients treated within three to eight months of onset of tinnitus and patients with mild hearing loss) was “better response” and the “response to treatment (subgroup analysis)” value (subjects classified by investigators as suffering from cochlear tinnitus) was “responded well”.
